This note sets out measurements from patent publication US10258659B2, “Water soluble defructosylated pea extract, and use thereof as a prebiotic agent” (OLYGOSE, priority 2009, dated 2019).

Marks after values point to notes of the source that are not given here.

The conditions of the data set: human, in vivo.

For the substance β-galacto-oligosaccharides [β-GOS], the “Abdominal noises F (frequency of the symptoms)” value is listed as 1.8 ^b, the “Abdominal noises I (intensity of the symptoms)” value is on record as 1.6 ^ab, the “Abdominal pain F (frequency of the symptoms)” value is 1.6 ^ab and the “Abdominal pain I (intensity of the symptoms)” value is recorded as 1.5 ^ab. The “Bloating F (frequency of the symptoms)” value is on record as 1.6 ^ab, the “Bloating I (intensity of the symptoms)” value is recorded as 1.7 ^b, the Cumulative grade is listed as 21.3 ^b and the “Flatulence F (frequency of the symptoms)” value was 2.9 ^b. Further, the “Flatulence I (intensity of the symptoms)” value was 2.5 ^b, the “Nausea F (frequency of the symptoms)” value is 1.2 ^a, the “Nausea I (intensity of the symptoms)” value was 1.1 ^a and the “Need to defecate F (frequency of the symptoms)” value is recorded as 2.1 ^a. In addition, the “Need to defecate I (intensity of the symptoms)” value is 1.7 ^a.
